Here are results for one compound from paper PMC4671318 (Proteins, 2012).

In the assay the target is human aldose reductase (AR) (Homo sapiens, UniProt P15121). In words: X-ray crystallography. The format is biochemical.

Broadly, the IC50 is the concentration needed to halve the response being measured. `O=C(O)COc1cc(F)ccc1C(=S)NCc1ccc(Br)cc1F` [compound 594, IDD594] returned a 50% inhibitory concentration (IC50) of 124 ± 10 nM.
